{"source": "patent US20150218090A1", "about": "“DOSAGE REGIMEN FOR AN S1P RECEPTOR MODULATOR OR AGONIST” (NOVARTIS AG, priority 2011, published 2015)", "origin": "cited, not measured here", "settings": "administration of 1.25 mg of FTY720; healthy subjects", "data": [{"smiles": "CCCCCCCCc1ccc(CCC(N)(CO)CO)cc1", "note": "[FTY720, 2-amino-2-[2-(4-octylphenyl)ethyl]propane-1,3-diol]", "values": [{"measurement": "decrease in heart rate", "value": "approximately 8 beats/min"}]}]}
